The assay concerns compound 48/80-induced lethality in rats. The experiment in a line: Protection of rats from compound 48/80-induced lethality. Format: in vivo. The following applies: Rattus norvegicus, subcutaneous administration (sc). The text has this:
Int. Pharmacodyn. Ther. 251, 39-51 (1981).
The term (sc) signifies subcutaneous administration.
With `CCn1nnn(CCN2CCC(Cc3nc4ccccc4n3Cc3ccc(CO)o3)CC2)c1=O` [1.07], the ED50 – broadly, the dose at which the effect has come halfway, by size or by number of responders – stood at 0.04 mg/kg.

Take `Cc1nc2ccccn2c(=O)c1CCN1CCC(Nc2nc3ccccc3n2Cc2ccc(CO)o2)CC1` [3.17]: the ED50 stood at 0.04 mg/kg.

With `Cc1nc2sccn2c(=O)c1CCN1CCC(Nc2nc3cncnc3n2Cc2ccc(CO)o2)CC1` [5.03], the ED50 stood at 0.04 mg/kg.

Compound `Cc1nc2ccccn2c(=O)c1CCN1CCC(Nc2nc3cccnc3n2Cc2ccc(CO)o2)CC1` [2.10] registered an ED50 of 0.04 mg/kg.

As to `O=[N+]([O-])c1cnccc1NCCN1CCC(Nc2nc3ccccc3n2Cc2ccc(CO)o2)CC1` [Co. No. 3.26, 5-[[2-[[1-[2-[(3-nitro-4-pyridinyl)amino]-ethyl]-4-piperidinyl]amino]-1H-benzimidazol-1-yl]methyl]-2-furanmethanol], the ED50 came to 0.04 mg/kg.

Compound `OCc1ccc(Cn2c(CC3CCN(CCc4ccccn4)CC3)nc3cccnc32)o1` [Co. No. 2.35, 5-[[2-[[1-[2-(2-pyridinyl)ethyl]-4-piperidinyl]methyl]-3H-imidazo[4,5-b]-pyridin-3-yl]methyl]-2-furanmethanol (E)-2-butenedioate(2:3)] displayed an ED50 of 0.02 mg/kg. This ED50 lies about 2-fold lower than the previous one.

Take `O=c1[nH]c2ccccc2n1CCN1CCC(Nc2nc3ccccc3n2Cc2ccc(CO)o2)CC1` [3.19]: the 50% effective dose (ED50) worked out at 0.02 mg/kg.

For `CN1CCC(Nc2nc3cncnc3n2Cc2ccc(CO)o2)CC1` [5.04], the ED50 is 0.02 mg/kg.

Compound `CC(C)NC(=O)CCN1CCC(Nc2nc3ccccc3n2Cc2ccc(CO)o2)CC1` [Co. No. 3.12] showed an ED50 of 0.04 mg/kg.

Take `O=C(O)C(=O)O.O=C(O)C(=O)O.O=C(O)C(=O)O.OCc1ccc(Cn2c(CC3CCN(CCNc4cccnn4)CC3)nc3ccccc32)o1` [Co. No. 1.24, 5-[[2-[[1-[2-(3-pyridazinylamino)ethyl]-4-piperidinyl]methyl]-1H-benzimidazol-1-yl]methyl]-2-furanmethanol ethanedioate (1:3)]: the ED50 turned out to be 0.02 mg/kg. Against the preceding compound, the ED50 is about 2-fold lower.

For the compound `Cc1nc2n(c(=O)c1CCN1CCC(Cc3nc4cccnc4n3Cc3ccc(CO)o3)CC1)CCCS2` [2.33], the ED50 was 0.04 mg/kg.

The compound `O=c1ccc(NCCN2CCC(Cc3nc4ccccc4n3Cc3ccc(CO)o3)CC2)n[nH]1` [Co. No. 1.25, 6-[[2-[4-[[1-[[5-(hydroxymethyl)-2-furanyl]methyl]-1H-benzimidazol-2-yl]methyl]-1-piperidinyl]ethyl]amino]-3(2H)-pyridazinone ethanedioate (2:5)] gave an ED50 of 0.01 mg/kg.

In turn, `Cn1cccc1C(=O)NCCN1CCC(Cc2nc3ccccc3n2Cc2ccc(CO)o2)CC1` [1.15] came in with an ED50 of 0.04 mg/kg.

The compound `CC(C)NC(=O)CCN1CCC(Cc2nc3ccccc3n2Cc2ccc(CO)o2)CC1` [1.12] had an ED50 of 0.01 mg/kg.

In turn, `OCc1ccc(Cn2c(CC3CCN(CCNc4cnccn4)CC3)nc3ccccc32)o1` [1.22] had an ED50 of 0.04 mg/kg.

Consider `Cc1nc2n(c(=O)c1CCN1CCC(Nc3nc4ccccc4n3Cc3ccc(CO)o3)CC1)CCS2` [3.15], for which the ED50 turned out to be 0.04 mg/kg.

`OCc1ccc(Cn2c(CC3CCN(CCNc4ncccn4)CC3)nc3ccccc32)o1` [1.23] registered an ED50 of 0.02 mg/kg.

As to `N#CCN1CCC(Nc2nc3ccccc3n2Cc2ccc(CO)o2)CC1` [Co. No. 3.22, 4-[[1-[[5-(hydroxymethyl)-2-furanyl]-methyl]-1H-benzimidazol-2-yl]amino]-1-piperidineacetonitrile], the ED50 came out at 0.04 mg/kg.

`O=[N+]([O-])c1cnccc1NCCN1CCCC(Nc2nc3ccccc3n2Cc2ccc(CO)o2)CC1` (stereo not drawn) [Co. No. 4.14, 5-[[2-[[hexahydro-1-[2-[(3-nitro-4-pyridinyl)amino]ethyl]-1H-azepin-4-yl]amino]-1H-benzimidazol-1-yl]methyl]-2-furanmethanol hemihydrate]: the 50% effect level (ED50) was put at a dose of 0.04 mg/kg.

The compound `CN1CCC(Nc2nc3ccccc3n2Cc2ccc(CO)o2)CC1` [3.03] gave an ED50 of 0.02 mg/kg.

On to `CCn1nnn(CCN2CCC(Nc3nc4ccccc4n3Cc3ccc(CO)o3)CC2)c1=O` [3.13], for which the ED50 amounted to 0.04 mg/kg.

`Cc1nc2n(c(=O)c1CCN1CCC(Nc3nc4ccccc4n3Cc3ccc(CO)o3)CC1)CCCS2` [Co. No. 3.31] registered an ED50 of 0.04 mg/kg.

Take `Cc1cc2nc(C)c(CCN3CCC(Nc4nc5cccnc5n4Cc4ccc(CO)o4)CC3)c(=O)n2o1` [2.32]: the ED50 is 0.02 mg/kg.

Compound `Cc1nc2sccn2c(=O)c1CCN1CCC(Cc2nc3ccccc3n2Cc2ccc(CO)o2)CC1` [1.08] gave an ED50 of 0.01 mg/kg.

The compound `OCc1ccc(Cn2c(NC3CCNCC3)nc3ccccc32)o1` [Co. No. 3.11, 5-[[2-(4-piperidinylamino)-1H-benzimidazol-1-yl]methyl]-2-furanamethanol] showed an ED50 of 0.04 mg/kg.

On to `Cc1nc2ccccn2c(=O)c1CCN1CCC(Cc2nc3ccccc3n2Cc2ccc(CO)o2)CC1` [1.09], for which the ED50 was determined as 0.02 mg/kg.

Compound `Cc1nc2n(c(=O)c1CCN1CCC(Cc3nc4ccccc4n3Cc3ccc(CO)o3)CC1)CCS2` [1.10] had an ED50 of 0.01 mg/kg. This ED50 lies about 2-fold lower than the previous one.

The compound `Cc1nc2sccn2c(=O)c1CCN1CCC(Nc2nc3cccnc3n2Cc2ccc(CO)o2)CC1` [2.09] returned an ED50 of 0.01 mg/kg.

`CN1CCC(Cc2nc3ccccc3n2Cc2ccc(CO)o2)CC1` [Co. No. 1.17, 5-[[2-[(1-methyl-4-piperidinyl)methyl]-1H-benzimidazol-1-yl]methyl]-2-furanmethanol]: the 50% effect level (ED50) was put at a dose of 0.04 mg/kg.

As for `COc1ccc(CCN2CCC(Cc3nc4ccccc4n3Cc3ccc(CO)o3)CC2)cc1` [1.11], the ED50 was found to be 0.04 mg/kg.

Values taken from patent US5272150A, “Hydroxyalkylfuranyl derivatives” (Janssen Pharmaceutica N.V., priority 1992, dated 1993).
